The source of these data is patent US20210115018A1, “PIPERIDINE COMPOUNDS AS COVALENT MENIN INHIBITORS” (THE REGENTS OF THE UNIVERSITY OF MICHIGAN, priority 2018, published 2021).

The structures appear in SMILES notation. Bounds are passed on as bounds.

One experiment has as its system MOLM13. Put plainly: 7-day proliferation assay (WST-8), cell growth inhibition. The following applies: Homo sapiens, MOLM-13, 168 h, MOLM13 cells, 7 days. It counts as cell-based. The procedure, abridged: (§1)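 Cells seeded at 2,000-3,000/well were exposed to serially diluted compound for 7 days at 37° C., 5% CO2. Viability was read by WST-8 absorbance at 450 nm after 1-2 h color development; readings normalized to DMSO-treated cells, IC50 by four-parameter nonlinear regression.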
On the technique in general: Tetrazolium assays rely on reduction of a dye to a coloured formazan, in cell work by metabolically active cells.

For a further experiment, the system named is MV4-11. The description is as above. The class given is cell-based. The following applies: Homo sapiens, MV4-11, 168 h, MV4-11 cells, 7 days. An outline of the steps:
as §1

A further experiment addresses T1, menin protein (Homo sapiens, UniProt O00255).
T1 sequence (O00255 1-610): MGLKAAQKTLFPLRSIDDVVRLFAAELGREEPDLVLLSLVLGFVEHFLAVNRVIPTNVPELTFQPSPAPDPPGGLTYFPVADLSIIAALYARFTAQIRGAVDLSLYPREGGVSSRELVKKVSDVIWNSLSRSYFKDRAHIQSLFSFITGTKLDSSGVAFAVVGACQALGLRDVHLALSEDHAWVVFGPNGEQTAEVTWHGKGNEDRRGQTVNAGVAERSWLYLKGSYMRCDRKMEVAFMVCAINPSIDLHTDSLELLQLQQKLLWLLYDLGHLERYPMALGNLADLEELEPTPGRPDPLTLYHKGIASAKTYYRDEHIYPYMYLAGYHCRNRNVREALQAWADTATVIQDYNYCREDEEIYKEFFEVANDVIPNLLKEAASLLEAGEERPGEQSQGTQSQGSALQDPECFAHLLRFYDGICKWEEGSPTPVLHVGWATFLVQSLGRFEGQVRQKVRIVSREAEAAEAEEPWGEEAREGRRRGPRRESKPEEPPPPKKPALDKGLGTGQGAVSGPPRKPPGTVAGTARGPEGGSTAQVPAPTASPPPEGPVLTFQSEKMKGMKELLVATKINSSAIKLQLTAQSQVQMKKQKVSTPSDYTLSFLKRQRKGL
Put plainly: Fluorescence polarization (FP) competitive binding assay, menin binding affinity. The following applies: FP competition with FAM-MM2 probe 2 nM, menin 4 nM, 30 minutes room temperature. An outline of the steps: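 Competitive FP with FAM-labeled MLL1 peptide probe FAM-MM2 (2 nM) and menin (4 nM) in PBS, 0.02% bovine γ-globulin, 4% DMSO, 0.01% Triton X-100. After 30 min at room temperature, mP read at 485/530 nm; IC50 from nonlinear regression against probe-only and complex-only controls.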
On the technique in general: Fluorescence polarisation rises when a labelled molecule tumbles more slowly, as on binding a larger partner.

For the compound `C=CC(=O)Nc1cc(F)cc(S(=O)(=O)c2ccc(N3CC(CN4CCC([C@@](CN5CCC5)(c5cccc(F)c5)[C@H]5CCC[C@@H]5NC(=O)OC)CC4)C3)cc2)c1` [compound 72], the results for the IC50 with MOLM13 and in the experiment on MV4-11 were under 50 nM and under 10 nM, respectively.
As to `C=CC(=O)Nc1cc(N(C)CCN(C)C)cc(S(=O)(=O)c2ccc(N3CC(CN4CCC([C@@](CN5CCC5)(c5cccc(F)c5)[C@H]5CCC[C@@H]5NC(=O)OC)CC4)C3)cc2)c1` [compound 75], the IC50 in the experiment with MOLM13 is under 50 nM; with MV4-11 it was under 10 nM.
On to `C=CC(=O)Nc1cccc(S(=O)(=O)c2ccc(N3CC(F)(CN4CCC([C@@](CN5CCC5)(c5cccc(F)c5)[C@H]5CCC[C@@H]5NC(=O)OC)CC4)C3)cc2)c1` [compound 76], for which the IC50 in the experiment on MOLM13 was under 50 nM; in the experiment with MV4-11, under 10 nM.
The corresponding values for `C=CC(=O)Nc1cc(S(=O)(=O)c2ccc(N3CC(F)(CN4CCC([C@@](CN5CCC5)(c5cccc(F)c5)[C@H]5CCC[C@@H]5NC(=O)OC)CC4)C3)cc2)ccn1` [compound 82] are under 100 nM and under 10 nM.
`C=CC(=O)Nc1cncc(S(=O)(=O)c2ccc(N3CC(F)(CN4CCC([C@@](CN5CCC5)(c5cccc(F)c5)[C@H]5CCC[C@@H]5NC(=O)OC)CC4)C3)cc2)c1` [compound 83]: the IC50 in the experiment on MOLM13 is under 100 nM; with MV4-11, under 10 nM.
As to `C=CC(=O)Nc1cccc(S(=O)(=O)c2ccc(N3CC(F)(CN4CCC([C@@](CN5CCC5)(c5cccc(F)c5)[C@H]5CCC[C@@H]5NC(=O)OC)CC4)C3)cc2)n1` [compound 85], the IC50 in the experiment on MOLM13 and in the experiment with MV4-11 was under 500 nM in each case.
Consider `C=CC(=O)Nc1cc(F)cc(S(=O)(=O)c2ccc(N3CC(F)(CN4CCC([C@@](CN5CCC5)(c5cccc(F)c5)[C@H]5CCC[C@@H]5NC(=O)OC)CC4)C3)cc2)c1` [compound 88], for which the IC50 in the experiment with MOLM13 and in the experiment with MV4-11 was under 50 nM throughout.
In the case of `C=CC(=O)Nc1cc(OC)cc(S(=O)(=O)c2ccc(N3CC(F)(CN4CCC([C@@](CN5CCC5)(c5cccc(F)c5)[C@H]5CCC[C@@H]5NC(=O)OC)CC4)C3)c(F)c2)c1` [compound 91], the IC50 in the experiment on MOLM13 and in the experiment on MV4-11 was under 50 nM throughout.
Regarding `C=CC(=O)Nc1cc(S(=O)(=O)c2ccc(N3CC(F)(CN4CCC([C@@](CN5CCC5)(c5cccc(F)c5)[C@H]5CCC[C@@H]5NC(=O)OC)CC4)C3)c(F)c2)ccc1OC` [compound 92], the IC50 with MOLM13 is under 50 nM; in the experiment with MV4-11, under 10 nM.
For `COC(=O)N[C@H]1CCC[C@@H]1[C@](CN1CCC1)(c1cccc(F)c1)C1CCN(CC2(F)CN(c3ccc(S(=O)(=O)C4CN(C(=O)/C=C/CN5CCCCC5)C4)cc3F)C2)CC1` [compound 94], the IC50 was under 50 nM in the experiment with MOLM13 and under 10 nM in the experiment with MV4-11.
The corresponding values for `COC(=O)N[C@H]1CCC[C@@H]1[C@](CN1CCC1)(c1cccc(F)c1)C1CCN(CC2(F)CN(c3ccc(S(=O)(=O)C4CN(C(=O)/C=C/CN5CCCCC5)C4)cc3)C2)CC1` [compound 95] are under 50 nM and under 10 nM.
For `CC#CC(=O)N1CC(S(=O)(=O)c2ccc(N3CC(F)(CN4CCC([C@@](CN5CCC5)(c5cccc(F)c5)[C@H]5CCC[C@@H]5NC(=O)OC)CC4)C3)c(F)c2)C1` [compound 102] the same measures were under 50 nM and under 10 nM.
The corresponding values for `C=CC(=O)N1CCCC(S(=O)(=O)c2ccc(N3CC(F)(CN4CCC([C@@](CN5CCC5)(c5cccc(F)c5)[C@H]5CCC[C@@H]5NC(=O)OC)CC4)C3)cc2)C1` (some centres unmarked) [compound 112] are under 50 nM and under 50 nM.
Regarding `COC(=O)N[C@H]1CCC[C@@H]1[C@](CN1CCC1)(c1cccc(F)c1)C1CCN(CC2(F)CN(c3ccc(S(=O)(=O)C4CCCN(C(=O)/C=C/CO)C4)cc3F)C2)CC1` (some centres unmarked) [compound 122], the IC50 in the experiment with MOLM13 is under 100 nM; with MV4-11, under 50 nM.
The corresponding values for `C=CC(=O)N1CCOCC(S(=O)(=O)c2ccc(N3CC(F)(CN4CCC([C@@](CN5CCC5)(c5cccc(F)c5)[C@H]5CCC[C@@H]5NC(=O)OC)CC4)C3)cc2)C1` (some centres unmarked) [compound 125] are under 50 nM and under 50 nM.
For `C=CC(=O)N1CCc2ccc(S(=O)(=O)c3ccc(N4CC(F)(CN5CCC([C@@](CN6CCC6)(c6cccc(F)c6)[C@H]6CCC[C@@H]6NC(=O)OC)CC5)C4)c(F)c3)cc21` [compound 126] the same measures were under 1000 nM and under 500 nM.
For `C=CC(=O)N1CCc2c1cccc2S(=O)(=O)c1ccc(N2CC(F)(CN3CCC([C@@](CN4CCC4)(c4cccc(F)c4)[C@H]4CCC[C@@H]4NC(=O)OC)CC3)C2)c(F)c1` [compound 127], the IC50 in the experiment on MOLM13 was under 500 nM; with MV4-11, under 100 nM.
For `COC(=O)N[C@H]1CCC[C@@H]1[C@](CNC(C)=O)(c1cccc(F)c1)C1CCN(CC2CN(c3ccc(S(=O)(=O)C4CN(C(=O)/C=C/CN(C)C)C4)cc3)C2)CC1` [compound 128] the same measures were under 100 nM and under 10 nM.
For `C=CC(=O)N1CC(S(=O)(=O)c2ccc(N3CC(CN4CCC([C@@](CNC(C)=O)(c5cccc(F)c5)[C@H]5CCC[C@@H]5NC(=O)OC)CC4)C3)cc2CN2CC(F)C2)C1` [compound 176], the IC50 in the experiment with MOLM13 and in the experiment on MV4-11 was under 50 nM in each case.
Regarding `C=CC(=O)N1CC(S(=O)(=O)c2ccc(N3CC(F)(CN4CCC([C@@](CNC(C)=O)(c5cccc(F)c5)[C@H]5CCC[C@@H]5NC(=O)OC)CC4)C3)cc2CN2CC(F)C2)C1` [compound 177], the IC50 was under 500 nM in the experiment with MOLM13 and under 100 nM in the experiment on MV4-11.
For `C=CC(=O)N1CCOC[C@@H](S(=O)(=O)c2ccc(N3CC(CN4CCC([C@@](CNC(=O)OC)(c5cccc(F)c5)[C@H]5CCC[C@@H]5NC(=O)OC)CC4)C3)c(F)c2)C1` [compound 179] the same measures were under 100 nM and under 50 nM.
For the compound `C=CC(=O)N1CCOC[C@@H](S(=O)(=O)c2ccc(N3CC(C)(CN4CCC([C@@](CNC(=O)OC)(c5cccc(F)c5)[C@H]5CCC[C@@H]5NC(=O)OC)CC4)C3)c(F)c2)C1` [compound 181], the IC50 in the experiment with MOLM13 was under 500 nM; in the experiment with MV4-11, under 50 nM.
In the case of `C=CC(=O)N1CCOC[C@@H](S(=O)(=O)c2ccc(N3CC(CN4CCC([C@@](Cn5ccnn5)(c5cccc(F)c5)[C@H]5CCC[C@@H]5NC(=O)OC)CC4)C3)c(F)c2)C1` [compound 182], the IC50 is under 100 nM in the experiment with MOLM13 and under 10 nM with MV4-11.
For `C=CC(=O)N1CCOC[C@@H](S(=O)(=O)c2ccc(N3CC(F)(CN4CCC([C@@](Cn5ccnn5)(c5cccc(F)c5)[C@H]5CCC[C@@H]5NC(=O)OC)CC4)C3)c(F)c2)C1` [compound 184] the same measures were under 500 nM and under 500 nM.
The corresponding values for `C=CC(=O)N1CCOC[C@@H](S(=O)(=O)c2ccc(N3CC(C)(CN4CCC([C@@](Cn5ccnn5)(c5cccc(F)c5)[C@H]5CCC[C@@H]5NC(=O)OC)CC4)C3)c(F)c2)C1` [compound 185] are under 1000 nM and under 100 nM.
For `C=CC(=O)N1CCCC[C@@H](S(=O)(=O)c2ccc(N3CC(CN4CCC([C@@](CNC(=O)OC)(c5cccc(F)c5)[C@H]5CCC[C@@H]5NC(=O)OC)CC4)C3)c(F)c2)C1` [compound 186] the same measures were under 50 nM and under 50 nM.
For `C=CC(=O)Nc1cccc(S(=O)(=O)c2ccc(N3CC(CN4CCC([C@@](CN5CCC5)(c5cccc(F)c5)[C@H]5CCC[C@@H]5NC(=O)OC)CC4)(OC)C3)c(F)c2)c1` [compound 187], the IC50 in the experiment with MOLM13 and with MV4-11 was under 10 nM throughout.
`C=CC(=O)Nc1cccc(S(=O)(=O)c2ccc(N3CC(CN4CCC([C@@](CN5CCC5)(c5cccc(F)c5)[C@H]5CCC[C@@H]5NC(=O)OC)CC4)(OC)C3)cc2)c1` [compound 188]: the IC50 with MOLM13 and with MV4-11 was under 10 nM throughout.
In the case of `C=CC(=O)N1CCC[C@@H](S(=O)(=O)c2ccc(N3CC(CN4CCC([C@@](CNC(C)=O)(c5cccc(F)c5)[C@H]5CCC[C@@H]5NC(=O)OC)CC4)C3)cc2)C1` [compound 199], the IC50 with MOLM13 and in the experiment on MV4-11 was under 50 nM in each case.
On to `C=CC(=O)N1CCC[C@@H](S(=O)(=O)c2ccc(N3CC(O)(CN4CCC([C@@](CNC(C)=O)(c5cccc(F)c5)[C@H]5CCC[C@@H]5NC(=O)OC)CC4)C3)cc2)C1` [compound 205], for which the IC50 with MOLM13 and in the experiment with MV4-11 was under 500 nM each time.
In the case of `CC#CC(=O)N1CC[C@@H](S(=O)(=O)c2ccc(N3CC(O)(CN4CCC([C@@](CNC(C)=O)(c5cccc(F)c5)[C@H]5CCC[C@@H]5NC(=O)OC)CC4)C3)c(F)c2)C1` [compound 206], the figures for the IC50 on menin protein and in the experiment with MV4-11 were 2 nM and under 50 nM, respectively.

As a reminder, the IC50 is the point on the concentration scale where inhibition reaches its midpoint.
